From patent US20250243196A1, “CITRON KINASE INHIBITORS” (The Cleveland Clinic Foundation, priority 2021, published 2025)

Legend:
Assay in all cases: KinaseProfiler panel
Format in all cases: biochemical
Design in all cases: dose or concentration left out as unconfirmed
Conditions in all cases: activity remaining
CDKL3(h) = CDKL3(h) (Homo sapiens (Human), UniProt Q8IVW4)
PDHK2(h) = PDHK2(h) (Homo sapiens (Human), UniProt Q15119)
VRK2(h) = VRK2(h) (Homo sapiens (Human), UniProt Q86Y07)
BIKE(h) = BIKE(h) (Homo sapiens (Human), UniProt Q9NSY1)
CLK1(h) = CLK1(h) (Homo sapiens (Human), UniProt P49759)
NIM1(h) = NIM1(h) (Homo sapiens (Human), UniProt Q8IY84)
BrSK1(h) = BrSK1(h) (Homo sapiens (Human), UniProt Q8TDC3)
MARK3(h) = MARK3(h) (Homo sapiens (Human), UniProt P27448)
GRK2(h) = GRK2(h) (Homo sapiens (Human), UniProt P25098)
PASK(h) = PASK(h) (Homo sapiens (Human), UniProt Q96RG2)
Fyn(h) = Fyn(h) (Homo sapiens (Human), UniProt P06241)
TTBK1(h) = TTBK1(h) (Homo sapiens (Human), UniProt Q5TCY1)
Ros(h) = Ros(h) (Homo sapiens (Human), UniProt P08922)
ALK2(h) = ALK2(h) (Homo sapiens (Human), UniProt Q04771)
WNK2(h) = WNK2(h) (Homo sapiens (Human), UniProt Q9Y3S1)
Sequence of WNK2(h) (Q9Y3S1 whole entry): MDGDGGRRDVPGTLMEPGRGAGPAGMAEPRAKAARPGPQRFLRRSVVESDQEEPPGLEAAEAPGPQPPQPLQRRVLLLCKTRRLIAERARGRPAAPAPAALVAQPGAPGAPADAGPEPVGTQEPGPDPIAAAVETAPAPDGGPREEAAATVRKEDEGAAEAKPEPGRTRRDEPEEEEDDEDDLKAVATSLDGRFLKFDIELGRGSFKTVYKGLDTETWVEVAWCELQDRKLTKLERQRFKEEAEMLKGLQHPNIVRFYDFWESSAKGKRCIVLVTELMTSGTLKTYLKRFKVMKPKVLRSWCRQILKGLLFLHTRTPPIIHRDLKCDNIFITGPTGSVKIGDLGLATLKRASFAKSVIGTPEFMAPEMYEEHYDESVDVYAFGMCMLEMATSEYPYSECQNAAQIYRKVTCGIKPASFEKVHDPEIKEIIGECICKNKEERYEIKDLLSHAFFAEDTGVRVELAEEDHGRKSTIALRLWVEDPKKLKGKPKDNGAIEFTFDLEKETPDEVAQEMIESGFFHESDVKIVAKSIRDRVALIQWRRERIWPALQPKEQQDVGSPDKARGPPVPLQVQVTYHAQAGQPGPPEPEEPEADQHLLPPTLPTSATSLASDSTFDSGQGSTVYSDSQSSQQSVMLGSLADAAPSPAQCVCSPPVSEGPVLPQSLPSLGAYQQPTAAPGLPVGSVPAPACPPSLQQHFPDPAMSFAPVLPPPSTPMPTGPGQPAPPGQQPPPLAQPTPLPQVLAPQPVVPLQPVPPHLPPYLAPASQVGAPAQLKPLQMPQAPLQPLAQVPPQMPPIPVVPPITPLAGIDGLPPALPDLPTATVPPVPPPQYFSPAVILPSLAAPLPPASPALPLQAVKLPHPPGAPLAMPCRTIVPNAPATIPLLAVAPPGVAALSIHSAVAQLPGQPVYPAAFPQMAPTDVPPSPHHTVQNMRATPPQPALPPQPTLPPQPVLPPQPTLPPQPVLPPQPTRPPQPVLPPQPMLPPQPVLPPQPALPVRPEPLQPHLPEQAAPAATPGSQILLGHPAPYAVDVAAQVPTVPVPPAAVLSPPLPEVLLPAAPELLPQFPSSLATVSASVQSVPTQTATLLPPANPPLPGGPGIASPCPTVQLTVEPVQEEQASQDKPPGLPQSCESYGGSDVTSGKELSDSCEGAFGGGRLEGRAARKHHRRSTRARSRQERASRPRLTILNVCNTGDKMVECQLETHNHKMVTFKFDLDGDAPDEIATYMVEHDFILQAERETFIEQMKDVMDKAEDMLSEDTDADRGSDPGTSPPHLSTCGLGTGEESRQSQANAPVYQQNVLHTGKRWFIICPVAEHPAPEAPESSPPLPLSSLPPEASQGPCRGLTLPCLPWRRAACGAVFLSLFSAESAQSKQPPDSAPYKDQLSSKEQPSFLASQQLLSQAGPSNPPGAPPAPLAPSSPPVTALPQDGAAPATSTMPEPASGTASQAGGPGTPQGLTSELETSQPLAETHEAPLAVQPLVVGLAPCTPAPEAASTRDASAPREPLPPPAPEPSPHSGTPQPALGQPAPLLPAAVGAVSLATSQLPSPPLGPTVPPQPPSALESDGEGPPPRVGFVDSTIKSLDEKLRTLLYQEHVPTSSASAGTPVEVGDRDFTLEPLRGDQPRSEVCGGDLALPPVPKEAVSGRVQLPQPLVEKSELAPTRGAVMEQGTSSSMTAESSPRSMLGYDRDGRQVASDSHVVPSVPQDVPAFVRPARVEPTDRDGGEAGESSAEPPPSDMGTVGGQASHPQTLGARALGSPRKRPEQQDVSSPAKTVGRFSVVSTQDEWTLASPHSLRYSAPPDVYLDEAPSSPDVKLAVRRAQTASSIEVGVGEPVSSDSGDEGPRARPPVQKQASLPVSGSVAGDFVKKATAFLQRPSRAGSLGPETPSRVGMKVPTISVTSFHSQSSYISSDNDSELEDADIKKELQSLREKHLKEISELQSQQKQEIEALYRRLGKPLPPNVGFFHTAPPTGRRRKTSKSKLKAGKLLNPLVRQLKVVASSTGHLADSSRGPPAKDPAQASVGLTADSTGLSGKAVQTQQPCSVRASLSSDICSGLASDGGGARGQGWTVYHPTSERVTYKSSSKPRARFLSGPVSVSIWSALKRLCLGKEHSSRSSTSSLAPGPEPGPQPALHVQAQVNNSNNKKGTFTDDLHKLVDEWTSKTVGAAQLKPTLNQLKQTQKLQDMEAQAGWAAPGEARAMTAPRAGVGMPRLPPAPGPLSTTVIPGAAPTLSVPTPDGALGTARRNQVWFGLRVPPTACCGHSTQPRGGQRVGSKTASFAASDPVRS

CK2α1(h) = CK2α1(h) (Homo sapiens (Human), UniProt P68400)
Sequence of CK2α1(h) (P68400 whole entry): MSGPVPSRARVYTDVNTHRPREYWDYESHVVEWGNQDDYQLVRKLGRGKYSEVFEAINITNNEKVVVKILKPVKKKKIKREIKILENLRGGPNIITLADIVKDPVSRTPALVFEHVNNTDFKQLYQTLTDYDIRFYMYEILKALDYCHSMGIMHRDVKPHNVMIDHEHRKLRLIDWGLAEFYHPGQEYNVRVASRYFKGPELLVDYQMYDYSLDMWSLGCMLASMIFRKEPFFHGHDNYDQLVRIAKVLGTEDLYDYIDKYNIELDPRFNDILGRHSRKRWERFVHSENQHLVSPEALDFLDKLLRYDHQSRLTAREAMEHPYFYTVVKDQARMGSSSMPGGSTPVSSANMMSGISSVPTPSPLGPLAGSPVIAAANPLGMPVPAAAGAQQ

MEKK3(h) = MEKK3(h) (Homo sapiens (Human), UniProt Q99759)
DYRK2(h) = DYRK2(h) (Homo sapiens (Human), UniProt Q92630)
Sequence of DYRK2(h) (Q92630 whole entry): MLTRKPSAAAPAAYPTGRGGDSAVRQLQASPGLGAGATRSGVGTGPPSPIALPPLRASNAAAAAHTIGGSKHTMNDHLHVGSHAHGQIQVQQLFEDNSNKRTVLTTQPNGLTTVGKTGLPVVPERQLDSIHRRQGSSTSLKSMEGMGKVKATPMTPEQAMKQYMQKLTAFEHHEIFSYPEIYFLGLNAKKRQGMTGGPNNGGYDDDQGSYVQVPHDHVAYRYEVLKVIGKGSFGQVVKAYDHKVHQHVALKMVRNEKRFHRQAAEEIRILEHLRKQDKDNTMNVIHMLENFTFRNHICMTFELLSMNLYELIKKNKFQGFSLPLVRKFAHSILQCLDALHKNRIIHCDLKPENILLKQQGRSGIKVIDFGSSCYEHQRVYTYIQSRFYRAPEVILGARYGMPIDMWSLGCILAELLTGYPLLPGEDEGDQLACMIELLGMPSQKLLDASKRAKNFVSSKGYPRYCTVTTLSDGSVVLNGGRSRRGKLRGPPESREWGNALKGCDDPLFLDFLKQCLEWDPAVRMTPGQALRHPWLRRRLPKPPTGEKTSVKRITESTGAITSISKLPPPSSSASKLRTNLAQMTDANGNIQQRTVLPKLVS

HIPK2(h) = HIPK2(h) (Homo sapiens (Human), UniProt Q9H2X6)
Mer(h) = Mer(h) (Homo sapiens (Human), UniProt Q12866)
CHK2(h) = CHK2(h) (Homo sapiens (Human), UniProt O96017)
Sequence of CHK2(h) (O96017 whole entry): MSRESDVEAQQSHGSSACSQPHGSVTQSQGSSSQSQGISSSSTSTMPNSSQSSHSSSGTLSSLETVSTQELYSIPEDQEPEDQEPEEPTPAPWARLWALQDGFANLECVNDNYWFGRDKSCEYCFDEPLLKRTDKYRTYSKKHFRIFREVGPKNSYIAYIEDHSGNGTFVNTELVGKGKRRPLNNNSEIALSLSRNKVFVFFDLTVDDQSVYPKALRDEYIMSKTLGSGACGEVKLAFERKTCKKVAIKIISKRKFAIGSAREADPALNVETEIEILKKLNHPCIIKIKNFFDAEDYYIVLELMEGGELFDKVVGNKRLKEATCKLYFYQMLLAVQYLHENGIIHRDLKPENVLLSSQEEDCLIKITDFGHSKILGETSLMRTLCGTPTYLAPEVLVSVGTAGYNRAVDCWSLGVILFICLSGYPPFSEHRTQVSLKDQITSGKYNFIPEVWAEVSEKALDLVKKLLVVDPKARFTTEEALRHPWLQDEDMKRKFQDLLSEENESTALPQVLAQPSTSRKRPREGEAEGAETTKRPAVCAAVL

NEK4(h) = NEK4(h) (Homo sapiens (Human), UniProt P51957)
PhKγ1(h) = PhKγ1(h) (Homo sapiens (Human), UniProt Q16816)
BTK(h) = BTK(h) (Homo sapiens (Human), UniProt Q06187)
TTK(h) = TTK(h) (Homo sapiens (Human), UniProt P33981)
SGK2(h) = SGK2(h) (Homo sapiens (Human), UniProt Q9HBY8)
PrKX(h) = PrKX(h) (Homo sapiens (Human), UniProt P51817)
Flt1(h) = Flt1(h) (Homo sapiens (Human), UniProt P17948)
BrSK2(h) = BrSK2(h) (Homo sapiens (Human), UniProt Q8IWQ3)
PKCμ(h) = PKCμ(h) (Homo sapiens (Human), UniProt Q15139)
ZAK(h) = ZAK(h) (Homo sapiens (Human), UniProt Q9NYL2)
RIPK1(h) = RIPK1(h) (Homo sapiens (Human), UniProt Q13546)
CLK2(h) = CLK2(h) (Homo sapiens (Human), UniProt P49760)

Sequence of CDKL3(h) (Q8IVW4 whole entry): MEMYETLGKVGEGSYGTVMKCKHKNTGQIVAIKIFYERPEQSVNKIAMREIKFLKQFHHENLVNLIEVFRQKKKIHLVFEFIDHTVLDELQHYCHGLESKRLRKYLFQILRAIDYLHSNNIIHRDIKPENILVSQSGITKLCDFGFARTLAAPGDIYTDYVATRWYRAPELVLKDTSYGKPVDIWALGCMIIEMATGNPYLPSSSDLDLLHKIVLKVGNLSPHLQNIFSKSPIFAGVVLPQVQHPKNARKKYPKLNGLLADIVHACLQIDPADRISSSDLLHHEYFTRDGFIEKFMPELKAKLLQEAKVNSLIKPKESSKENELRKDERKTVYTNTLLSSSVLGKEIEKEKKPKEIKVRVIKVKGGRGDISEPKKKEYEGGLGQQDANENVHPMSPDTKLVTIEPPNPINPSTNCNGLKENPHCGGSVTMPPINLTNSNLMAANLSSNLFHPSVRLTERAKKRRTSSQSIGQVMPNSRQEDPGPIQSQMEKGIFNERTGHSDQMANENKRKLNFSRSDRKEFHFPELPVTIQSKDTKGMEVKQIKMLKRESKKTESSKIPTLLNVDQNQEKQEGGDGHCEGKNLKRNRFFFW
Sequence of VRK2(h) (Q86Y07 whole entry): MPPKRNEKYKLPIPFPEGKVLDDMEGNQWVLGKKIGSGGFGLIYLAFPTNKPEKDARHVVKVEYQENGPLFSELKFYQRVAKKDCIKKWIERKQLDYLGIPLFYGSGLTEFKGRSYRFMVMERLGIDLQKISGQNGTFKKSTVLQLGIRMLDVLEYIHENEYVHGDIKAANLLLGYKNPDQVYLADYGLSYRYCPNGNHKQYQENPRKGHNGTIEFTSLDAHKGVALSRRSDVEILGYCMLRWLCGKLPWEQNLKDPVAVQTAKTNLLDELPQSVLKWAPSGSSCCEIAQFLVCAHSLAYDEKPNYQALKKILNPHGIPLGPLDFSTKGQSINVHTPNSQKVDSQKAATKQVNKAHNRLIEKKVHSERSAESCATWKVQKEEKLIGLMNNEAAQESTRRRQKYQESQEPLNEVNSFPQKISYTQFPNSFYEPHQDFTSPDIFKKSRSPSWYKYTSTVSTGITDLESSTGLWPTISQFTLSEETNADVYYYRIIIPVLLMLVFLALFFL

In the case of `Cc1cc2c(-c3ccc(NC(=O)[C@H](N)CC(C)(C)C)cc3C)ccnc2[nH]1` [Compound F-90, (2R)-2-Amino-4,4-dimethyl-N-[3-methyl-4-(2-methyl-1H-pyrrolo[2,3-b]pyridin-4-yl)phenyl]pentanamide], the “% Activity” value (CDKL3(h)) is reported as 79%, the “% Activity” value (PDHK2(h)) is reported as 87% and the “% Activity” value (VRK2(h)) is reported as 100%. The “% Activity” value (BIKE(h)) was 50%, the “% Activity” value (CLK1(h)) was 88% and the “% Activity” value (NIM1(h)) was 112%. The “% Activity” value (BrSK1(h)) was 96%, the “% Activity” value (MARK3(h)) was 90% and the “% Activity” value (GRK2(h)) was 95%. The “% Activity” value (PASK(h)) was 72%, the “% Activity” value (Fyn(h)) was 100% and the “% Activity” value (TTBK1(h)) was 96%. For the same compound, the “% Activity” value (Ros(h)) was 97%, the “% Activity” value (ALK2(h)) was 122% and the “% Activity” value (WNK2(h)) was 94%. For the same compound, the “% Activity” value (CK2α1(h)) was 112%, the “% Activity” value (MEKK3(h)) was 107% and the “% Activity” value (DYRK2(h)) was 101%. For the same compound, the “% Activity” value (HIPK2(h)) was 105%, the “% Activity” value (Mer(h)) was 105% and the “% Activity” value (CHK2(h)) was 95%. The “% Activity” value (NEK4(h)) was 90%, the “% Activity” value (PhKγ1(h)) was 101% and the “% Activity” value (BTK(h)) was 122%. For the same compound, the “% Activity” value (TTK(h)) was 102%, the “% Activity” value (SGK2(h)) was 82% and the “% Activity” value (PrKX(h)) was 101%. The “% Activity” value (Flt1(h)) was 125%, the “% Activity” value (BrSK2(h)) was 83% and the “% Activity” value (PKCμ(h)) was 109%. For the same compound, the “% Activity” value (ZAK(h)) was 83%, the “% Activity” value (RIPK1(h)) was 84% and the “% Activity” value (CLK2(h)) was 106%.
